For series [1], the target named is uracil DNA-glycosylase (UDG) (Homo sapiens, UniProt P13051). Nature of the series: co-crystal structure. In kind it is binding.
The target in series [2] is human UDG (mitochondrial, 6xHis; XTAL Biostructures) (Homo sapiens, UniProt P13051-2 82-304). As to the kind of experiment: thermal shift.

Usually Kd stands for the free concentration of one partner at which half of the binding sites on the other are occupied at equilibrium, for simple one-to-one binding. Read a low Kd as a tighter complex.

uracil DNA-glycosylase (UDG), sequence (P13051 whole entry): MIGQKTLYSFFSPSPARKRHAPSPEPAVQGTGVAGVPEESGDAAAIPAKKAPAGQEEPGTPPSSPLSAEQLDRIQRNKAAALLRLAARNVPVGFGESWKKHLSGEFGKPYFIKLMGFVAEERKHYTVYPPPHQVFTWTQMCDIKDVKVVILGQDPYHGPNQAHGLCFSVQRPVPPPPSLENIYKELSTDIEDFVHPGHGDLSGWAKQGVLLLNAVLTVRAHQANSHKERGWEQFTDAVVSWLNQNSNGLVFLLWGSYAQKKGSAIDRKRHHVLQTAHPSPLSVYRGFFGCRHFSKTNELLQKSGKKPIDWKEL
human UDG (mitochondrial, 6xHis; XTAL Biostructures), sequence (P13051 91-313): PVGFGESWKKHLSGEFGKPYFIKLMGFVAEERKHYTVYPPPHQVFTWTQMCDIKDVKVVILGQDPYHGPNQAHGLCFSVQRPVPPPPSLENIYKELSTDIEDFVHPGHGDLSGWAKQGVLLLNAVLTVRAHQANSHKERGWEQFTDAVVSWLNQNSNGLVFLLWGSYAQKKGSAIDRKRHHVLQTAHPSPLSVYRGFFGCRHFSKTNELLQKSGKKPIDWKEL

The molecule `O=C(O)C1=CC(=C(c2ccc(O)c(C(=O)O)c2)c2ccc(O)c(C(=O)O)c2)C=CC1=O` [aurintricarboxylic acid] came in with a Kd in series [1] of less than 700 nM. For GCACUUAAGAAUUGCAAUUCUUAAGUGC (structured_DNA, U in place of T (deoxyuridine, nine U:A pairs stated)) [uracil DNA hairpin], in series [2], the binding result was “binds”.

For the origin of these results see article PMC8722130 (Progress in biophysics and molecular biology, 2021).
